# Data: the supplement of paper PMC8882468
# Tested on: HCI-002 (organoid from a triple-negative breast cancer xenograft)
# Test: CTG-3D luminescence at 96 h relative to day-0 seeding control (ratio to day 0); higher = more growth / less cytotoxicity; PDxO 3D drug screen, 96 h, CTG-3D normalised to day-0 seeding control.
# Details: 625 fM; days in culture: 62
row,Compound,CTG-3D luminescence at 96 h
1,CC(C)n1nc(-c2ccc3oc(N)nc3c2)c2c(N)ncnc21 [sapanisertib],2.93
2,Cc1nc(-c2cn3c(n2)-c2ccc(-c4cnn(C(C)(C)C(N)=O)c4)cc2OCC3)n(C(C)C)n1 [taselisib],3.01
3,Cc1cc(Nc2ncnc3ccc(NC4=NC(C)(C)CO4)cc23)ccc1Oc1ccn2ncnc2c1 [tucatinib],2.91
4,CS(=O)(=O)c1ccc(C(=O)Nc2ccc(Cl)c(-c3ccccn3)c2)c(Cl)c1 [vismodegib],3.01
5,CNC(=O)c1cccc(-c2ccc3c(N4CCOC[C@@H]4C)nc(N4CCOC[C@@H]4C)nc3n2)c1 [vistusertib],2.99

# Same assay, conditions: 625 fM; days in culture: 82
row,Compound,CTG-3D luminescence at 96 h
1,CC(C)n1nc(-c2ccc3oc(N)nc3c2)c2c(N)ncnc21 [sapanisertib],2.93
2,Cc1nc(-c2cn3c(n2)-c2ccc(-c4cnn(C(C)(C)C(N)=O)c4)cc2OCC3)n(C(C)C)n1 [taselisib],3.2
3,Cc1cc(Nc2ncnc3ccc(NC4=NC(C)(C)CO4)cc23)ccc1Oc1ccn2ncnc2c1 [tucatinib],2.63
4,CS(=O)(=O)c1ccc(C(=O)Nc2ccc(Cl)c(-c3ccccn3)c2)c(Cl)c1 [vismodegib],2.86
5,CNC(=O)c1cccc(-c2ccc3c(N4CCOC[C@@H]4C)nc(N4CCOC[C@@H]4C)nc3n2)c1 [vistusertib],2.63

# Same assay, conditions: 625 fM; days in culture: 91
row,Compound,CTG-3D luminescence at 96 h
1,CC(C)n1nc(-c2ccc3oc(N)nc3c2)c2c(N)ncnc21 [sapanisertib],4.41
2,Cc1nc(-c2cn3c(n2)-c2ccc(-c4cnn(C(C)(C)C(N)=O)c4)cc2OCC3)n(C(C)C)n1 [taselisib],3.59
3,Cc1cc(Nc2ncnc3ccc(NC4=NC(C)(C)CO4)cc23)ccc1Oc1ccn2ncnc2c1 [tucatinib],3.48
4,CS(=O)(=O)c1ccc(C(=O)Nc2ccc(Cl)c(-c3ccccn3)c2)c(Cl)c1 [vismodegib],2.53
5,CNC(=O)c1cccc(-c2ccc3c(N4CCOC[C@@H]4C)nc(N4CCOC[C@@H]4C)nc3n2)c1 [vistusertib],3.86

# Same assay, conditions: 625 fM; days in culture: 191
row,Compound,CTG-3D luminescence at 96 h
1,CC(C)n1nc(-c2ccc3oc(N)nc3c2)c2c(N)ncnc21 [sapanisertib],2.61
2,Cc1nc(-c2cn3c(n2)-c2ccc(-c4cnn(C(C)(C)C(N)=O)c4)cc2OCC3)n(C(C)C)n1 [taselisib],2.84
3,Cc1cc(Nc2ncnc3ccc(NC4=NC(C)(C)CO4)cc23)ccc1Oc1ccn2ncnc2c1 [tucatinib],2.73
4,CS(=O)(=O)c1ccc(C(=O)Nc2ccc(Cl)c(-c3ccccn3)c2)c(Cl)c1 [vismodegib],3.41
5,CNC(=O)c1cccc(-c2ccc3c(N4CCOC[C@@H]4C)nc(N4CCOC[C@@H]4C)nc3n2)c1 [vistusertib],2.78

# Same assay, conditions: 625 fM; days in culture: 209
row,Compound,CTG-3D luminescence at 96 h
1,CC(C)n1nc(-c2ccc3oc(N)nc3c2)c2c(N)ncnc21 [sapanisertib],2.18
2,Cc1nc(-c2cn3c(n2)-c2ccc(-c4cnn(C(C)(C)C(N)=O)c4)cc2OCC3)n(C(C)C)n1 [taselisib],2.45
3,Cc1cc(Nc2ncnc3ccc(NC4=NC(C)(C)CO4)cc23)ccc1Oc1ccn2ncnc2c1 [tucatinib],2.39
4,CS(=O)(=O)c1ccc(C(=O)Nc2ccc(Cl)c(-c3ccccn3)c2)c(Cl)c1 [vismodegib],2.71
5,CNC(=O)c1cccc(-c2ccc3c(N4CCOC[C@@H]4C)nc(N4CCOC[C@@H]4C)nc3n2)c1 [vistusertib],2.62

# Same assay, conditions: 625 fM; days in culture: 227
row,Compound,CTG-3D luminescence at 96 h
1,CC(C)n1nc(-c2ccc3oc(N)nc3c2)c2c(N)ncnc21 [sapanisertib],5.6
2,Cc1nc(-c2cn3c(n2)-c2ccc(-c4cnn(C(C)(C)C(N)=O)c4)cc2OCC3)n(C(C)C)n1 [taselisib],5.91
3,Cc1cc(Nc2ncnc3ccc(NC4=NC(C)(C)CO4)cc23)ccc1Oc1ccn2ncnc2c1 [tucatinib],5.85
4,CS(=O)(=O)c1ccc(C(=O)Nc2ccc(Cl)c(-c3ccccn3)c2)c(Cl)c1 [vismodegib],5.19
5,CNC(=O)c1cccc(-c2ccc3c(N4CCOC[C@@H]4C)nc(N4CCOC[C@@H]4C)nc3n2)c1 [vistusertib],5.47

# Tested on: HCI-012 (organoid from a breast cancer xenograft)
# Test: as above
# Details: 12.5 pM; days in culture: 143
row,Compound,CTG-3D luminescence at 96 h
1,CC(C)n1nc(-c2ccc3oc(N)nc3c2)c2c(N)ncnc21 [sapanisertib],1.67
2,Cc1nc(-c2cn3c(n2)-c2ccc(-c4cnn(C(C)(C)C(N)=O)c4)cc2OCC3)n(C(C)C)n1 [taselisib],2.1
3,Cc1cc(Nc2ncnc3ccc(NC4=NC(C)(C)CO4)cc23)ccc1Oc1ccn2ncnc2c1 [tucatinib],2.24
4,CS(=O)(=O)c1ccc(C(=O)Nc2ccc(Cl)c(-c3ccccn3)c2)c(Cl)c1 [vismodegib],2.03
5,CNC(=O)c1cccc(-c2ccc3c(N4CCOC[C@@H]4C)nc(N4CCOC[C@@H]4C)nc3n2)c1 [vistusertib],2.08

# Same assay, conditions: 12.5 pM; days in culture: 162
row,Compound,CTG-3D luminescence at 96 h
1,CC(C)n1nc(-c2ccc3oc(N)nc3c2)c2c(N)ncnc21 [sapanisertib],2.13
2,Cc1nc(-c2cn3c(n2)-c2ccc(-c4cnn(C(C)(C)C(N)=O)c4)cc2OCC3)n(C(C)C)n1 [taselisib],2.56
3,Cc1cc(Nc2ncnc3ccc(NC4=NC(C)(C)CO4)cc23)ccc1Oc1ccn2ncnc2c1 [tucatinib],2.64
4,CS(=O)(=O)c1ccc(C(=O)Nc2ccc(Cl)c(-c3ccccn3)c2)c(Cl)c1 [vismodegib],2.64
5,CNC(=O)c1cccc(-c2ccc3c(N4CCOC[C@@H]4C)nc(N4CCOC[C@@H]4C)nc3n2)c1 [vistusertib],2.68

# Same assay, conditions: 12.5 pM; days in culture: 201
row,Compound,CTG-3D luminescence at 96 h
1,CC(C)n1nc(-c2ccc3oc(N)nc3c2)c2c(N)ncnc21 [sapanisertib],2.95
2,Cc1nc(-c2cn3c(n2)-c2ccc(-c4cnn(C(C)(C)C(N)=O)c4)cc2OCC3)n(C(C)C)n1 [taselisib],2.64
3,Cc1cc(Nc2ncnc3ccc(NC4=NC(C)(C)CO4)cc23)ccc1Oc1ccn2ncnc2c1 [tucatinib],2.71
4,CS(=O)(=O)c1ccc(C(=O)Nc2ccc(Cl)c(-c3ccccn3)c2)c(Cl)c1 [vismodegib],2.82
5,CNC(=O)c1cccc(-c2ccc3c(N4CCOC[C@@H]4C)nc(N4CCOC[C@@H]4C)nc3n2)c1 [vistusertib],2.73

# Same assay, conditions: 0.00025 µM; days in culture: 143
row,Compound,CTG-3D luminescence at 96 h
1,CC(C)n1nc(-c2ccc3oc(N)nc3c2)c2c(N)ncnc21 [sapanisertib],2.13
2,Cc1nc(-c2cn3c(n2)-c2ccc(-c4cnn(C(C)(C)C(N)=O)c4)cc2OCC3)n(C(C)C)n1 [taselisib],2.32
3,Cc1cc(Nc2ncnc3ccc(NC4=NC(C)(C)CO4)cc23)ccc1Oc1ccn2ncnc2c1 [tucatinib],2.35
4,CS(=O)(=O)c1ccc(C(=O)Nc2ccc(Cl)c(-c3ccccn3)c2)c(Cl)c1 [vismodegib],2.38
5,CNC(=O)c1cccc(-c2ccc3c(N4CCOC[C@@H]4C)nc(N4CCOC[C@@H]4C)nc3n2)c1 [vistusertib],2.14

# Same assay, conditions: 0.00025 µM; days in culture: 162
row,Compound,CTG-3D luminescence at 96 h
1,CC(C)n1nc(-c2ccc3oc(N)nc3c2)c2c(N)ncnc21 [sapanisertib],2.28
2,Cc1nc(-c2cn3c(n2)-c2ccc(-c4cnn(C(C)(C)C(N)=O)c4)cc2OCC3)n(C(C)C)n1 [taselisib],2.08
3,Cc1cc(Nc2ncnc3ccc(NC4=NC(C)(C)CO4)cc23)ccc1Oc1ccn2ncnc2c1 [tucatinib],2.24
4,CS(=O)(=O)c1ccc(C(=O)Nc2ccc(Cl)c(-c3ccccn3)c2)c(Cl)c1 [vismodegib],2.72
5,CNC(=O)c1cccc(-c2ccc3c(N4CCOC[C@@H]4C)nc(N4CCOC[C@@H]4C)nc3n2)c1 [vistusertib],2.6

# Same assay, conditions: 0.00025 µM; days in culture: 201
row,Compound,CTG-3D luminescence at 96 h
1,CC(C)n1nc(-c2ccc3oc(N)nc3c2)c2c(N)ncnc21 [sapanisertib],2.02
2,Cc1nc(-c2cn3c(n2)-c2ccc(-c4cnn(C(C)(C)C(N)=O)c4)cc2OCC3)n(C(C)C)n1 [taselisib],2
3,Cc1cc(Nc2ncnc3ccc(NC4=NC(C)(C)CO4)cc23)ccc1Oc1ccn2ncnc2c1 [tucatinib],2.13
4,CS(=O)(=O)c1ccc(C(=O)Nc2ccc(Cl)c(-c3ccccn3)c2)c(Cl)c1 [vismodegib],2.26
5,CNC(=O)c1cccc(-c2ccc3c(N4CCOC[C@@H]4C)nc(N4CCOC[C@@H]4C)nc3n2)c1 [vistusertib],1.99

# Same assay, conditions: 0.005 µM; days in culture: 143
row,Compound,CTG-3D luminescence at 96 h
1,CC(C)n1nc(-c2ccc3oc(N)nc3c2)c2c(N)ncnc21 [sapanisertib],1.85
2,Cc1nc(-c2cn3c(n2)-c2ccc(-c4cnn(C(C)(C)C(N)=O)c4)cc2OCC3)n(C(C)C)n1 [taselisib],2.04
3,Cc1cc(Nc2ncnc3ccc(NC4=NC(C)(C)CO4)cc23)ccc1Oc1ccn2ncnc2c1 [tucatinib],2.17
4,CS(=O)(=O)c1ccc(C(=O)Nc2ccc(Cl)c(-c3ccccn3)c2)c(Cl)c1 [vismodegib],2.4
5,CNC(=O)c1cccc(-c2ccc3c(N4CCOC[C@@H]4C)nc(N4CCOC[C@@H]4C)nc3n2)c1 [vistusertib],2.4

# Same assay, conditions: 0.005 µM; days in culture: 162
row,Compound,CTG-3D luminescence at 96 h
1,CC(C)n1nc(-c2ccc3oc(N)nc3c2)c2c(N)ncnc21 [sapanisertib],1.6
2,Cc1nc(-c2cn3c(n2)-c2ccc(-c4cnn(C(C)(C)C(N)=O)c4)cc2OCC3)n(C(C)C)n1 [taselisib],1.72
3,Cc1cc(Nc2ncnc3ccc(NC4=NC(C)(C)CO4)cc23)ccc1Oc1ccn2ncnc2c1 [tucatinib],1.87
4,CS(=O)(=O)c1ccc(C(=O)Nc2ccc(Cl)c(-c3ccccn3)c2)c(Cl)c1 [vismodegib],2.08
5,CNC(=O)c1cccc(-c2ccc3c(N4CCOC[C@@H]4C)nc(N4CCOC[C@@H]4C)nc3n2)c1 [vistusertib],1.94

# Same assay, conditions: 0.005 µM; days in culture: 201
row,Compound,CTG-3D luminescence at 96 h
1,CC(C)n1nc(-c2ccc3oc(N)nc3c2)c2c(N)ncnc21 [sapanisertib],1.89
2,Cc1nc(-c2cn3c(n2)-c2ccc(-c4cnn(C(C)(C)C(N)=O)c4)cc2OCC3)n(C(C)C)n1 [taselisib],1.44
3,Cc1cc(Nc2ncnc3ccc(NC4=NC(C)(C)CO4)cc23)ccc1Oc1ccn2ncnc2c1 [tucatinib],1.62
4,CS(=O)(=O)c1ccc(C(=O)Nc2ccc(Cl)c(-c3ccccn3)c2)c(Cl)c1 [vismodegib],1.72
5,CNC(=O)c1cccc(-c2ccc3c(N4CCOC[C@@H]4C)nc(N4CCOC[C@@H]4C)nc3n2)c1 [vistusertib],1.53

# Same assay, conditions: 0.1 µM; days in culture: 143
row,Compound,CTG-3D luminescence at 96 h
1,CC(C)n1nc(-c2ccc3oc(N)nc3c2)c2c(N)ncnc21 [sapanisertib],1.06
2,Cc1nc(-c2cn3c(n2)-c2ccc(-c4cnn(C(C)(C)C(N)=O)c4)cc2OCC3)n(C(C)C)n1 [taselisib],1.89
3,Cc1cc(Nc2ncnc3ccc(NC4=NC(C)(C)CO4)cc23)ccc1Oc1ccn2ncnc2c1 [tucatinib],2.39
4,CS(=O)(=O)c1ccc(C(=O)Nc2ccc(Cl)c(-c3ccccn3)c2)c(Cl)c1 [vismodegib],2.49
5,CNC(=O)c1cccc(-c2ccc3c(N4CCOC[C@@H]4C)nc(N4CCOC[C@@H]4C)nc3n2)c1 [vistusertib],1.9

# Same assay, conditions: 0.1 µM; days in culture: 162
row,Compound,CTG-3D luminescence at 96 h
1,CC(C)n1nc(-c2ccc3oc(N)nc3c2)c2c(N)ncnc21 [sapanisertib],1.27
2,Cc1nc(-c2cn3c(n2)-c2ccc(-c4cnn(C(C)(C)C(N)=O)c4)cc2OCC3)n(C(C)C)n1 [taselisib],2.19
3,Cc1cc(Nc2ncnc3ccc(NC4=NC(C)(C)CO4)cc23)ccc1Oc1ccn2ncnc2c1 [tucatinib],3.58
4,CS(=O)(=O)c1ccc(C(=O)Nc2ccc(Cl)c(-c3ccccn3)c2)c(Cl)c1 [vismodegib],2.88
5,CNC(=O)c1cccc(-c2ccc3c(N4CCOC[C@@H]4C)nc(N4CCOC[C@@H]4C)nc3n2)c1 [vistusertib],2.8

# Same assay, conditions: 0.1 µM; days in culture: 201
row,Compound,CTG-3D luminescence at 96 h
1,CC(C)n1nc(-c2ccc3oc(N)nc3c2)c2c(N)ncnc21 [sapanisertib],0.938
2,Cc1nc(-c2cn3c(n2)-c2ccc(-c4cnn(C(C)(C)C(N)=O)c4)cc2OCC3)n(C(C)C)n1 [taselisib],1.62
3,Cc1cc(Nc2ncnc3ccc(NC4=NC(C)(C)CO4)cc23)ccc1Oc1ccn2ncnc2c1 [tucatinib],1.73
4,CS(=O)(=O)c1ccc(C(=O)Nc2ccc(Cl)c(-c3ccccn3)c2)c(Cl)c1 [vismodegib],1.56
5,CNC(=O)c1cccc(-c2ccc3c(N4CCOC[C@@H]4C)nc(N4CCOC[C@@H]4C)nc3n2)c1 [vistusertib],1.7
